Earlier results, collected in patent publication CN110812364A, “半乳寡糖及其衍生物在作为SGLTs抑制剂中的应用” (Ocean University of China, priority 2019, dated 2020).

Molecular target: T1, SGLT2 (Homo sapiens, UniProt P31639)
T1 sequence (P31639 1-672): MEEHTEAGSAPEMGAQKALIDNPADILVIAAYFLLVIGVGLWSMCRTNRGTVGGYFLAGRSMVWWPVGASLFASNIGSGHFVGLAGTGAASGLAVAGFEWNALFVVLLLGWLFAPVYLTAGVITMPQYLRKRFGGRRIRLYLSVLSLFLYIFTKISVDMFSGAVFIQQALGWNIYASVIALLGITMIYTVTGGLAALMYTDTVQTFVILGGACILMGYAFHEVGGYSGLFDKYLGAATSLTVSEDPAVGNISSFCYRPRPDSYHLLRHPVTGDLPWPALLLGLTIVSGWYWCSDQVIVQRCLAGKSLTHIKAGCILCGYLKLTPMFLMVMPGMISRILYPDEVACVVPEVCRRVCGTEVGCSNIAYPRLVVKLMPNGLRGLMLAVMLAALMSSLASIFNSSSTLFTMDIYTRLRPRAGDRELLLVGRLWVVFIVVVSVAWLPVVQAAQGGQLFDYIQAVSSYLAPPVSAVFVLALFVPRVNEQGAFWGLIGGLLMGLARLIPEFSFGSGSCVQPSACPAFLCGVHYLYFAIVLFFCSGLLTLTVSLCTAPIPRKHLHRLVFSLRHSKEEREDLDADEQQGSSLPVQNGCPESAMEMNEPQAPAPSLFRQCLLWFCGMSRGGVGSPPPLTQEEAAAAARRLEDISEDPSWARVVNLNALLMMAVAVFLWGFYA
Conditions: dual inhibitor of SGLT1 and SGLT2, background section

## O=C(CCc1ccc(O)cc1)c1c(O)cc(O)cc1O[C@@H]1O[C@H](CO)[C@@H](O)[C@H](O)[C@H]1O [根皮苷, 根皮苷(phloridzin)]
  selectivity for SGLT1 and SGLT2: 选择性较差
